Test results taken from ChEMBL document CHEMBL3507680, “University of Dundee, Gates Library screen for HepG2 cell viability”.

Test: Human HepG2 cell viability assay in 384 well format
Type: toxicity, cell-based
Design: dose 125 nL, time 70.5 hour; cytotoxicity at 70.5 h: concentration not given beside the values
Settings: HepG2 cells, read-out: Inhibition

Row | Compound | cytotoxicity at 70.5 h
1 | COCCOc1ccnc(-c2noc([C@@H]3CCCN3C3CCC3)n2)c1 | -5.26%
2 | OC1(CNCc2ccc(F)c(C(F)(F)F)c2)CCSCC1 | -7.48%
3 | CCNC(=O)[C@@H]1CCCN1[C@@H](C(=O)NC)C1CC1 | -2.16%
4 | O=c1[nH]c(-c2ccc(Cl)cc2)nc2c1CCNC2 | 12.1%
5 | O=S1(=O)CCC(n2cc(C3=CCN(CCN4CCCCC4)CC3)cn2)C1 (stereo not drawn) | -7.91%
6 | CCc1nnc(NC(=O)CCN2CC=C(c3cnn(C)c3)CC2)s1 | -7.5%
7 | COc1ccnc(N2CCN(Cc3ncc(-c4ccccc4)o3)CC2)n1 | 4.14%
8 | Cc1cc2c(=O)n3c(nc2s1)CCN(C(=O)c1ccn(C)n1)CC3 | -5.05%
9 | CNc1cc(N2CCCC2CNCc2ccco2)ncn1 (stereo not drawn) | -1.02%
10 | CC(C)NC(=O)N(C)C1CCN(c2ccccc2Cl)C1=O (stereo not drawn) | -21.1%
11 | O=C(NCc1cncc2c1CCN(CC1CCOC1)C2)c1ccco1 (stereo not drawn) | 19.6%
12 | Cc1ccc(C(=O)N2CCSCC2)cc1NC(=O)NCC1CCC1 | -7.96%
13 | O=C(Nc1cc(C(F)(F)F)c[nH]c1=O)N1CCOCC1 | -12.9%
14 | OC1CCN(c2nc(-c3ccccc3)no2)CC1 | -11.6%
15 | CN(Cc1ccncc1)C1COC2(CCN(Cc3ccccn3)CC2)C1 (stereo not drawn) | -7%
16 | O=c1oc(-c2ccc(F)cc2)nn1CC1CCOC1 (stereo not drawn) | 16.4%
17 | Cc1nn(C)c(N(C)C)c1CNCCOc1ccc2c(c1)OCO2 | -4.86%
18 | O=C(c1ccnnc1)N1CCN(Cc2cccnc2)c2ncccc2C1 | -8.62%
19 | CCc1cccc(-n2nnc(C(=O)O)c2-c2ccncc2)c1 | -13.1%
20 | CC(c1nc(-c2ccccc2)no1)N1CC(n2cccn2)C1 (stereo not drawn) | -4.14%
21 | Cc1cc(C)nc(Nc2cccc(C3CCCN(C(C)C)C3)n2)n1 (stereo not drawn) | -6.28%
22 | CC(C)NC(=O)N1CCC[C@H]1C(=O)NCCCc1cnn(C)c1 | -4.04%
23 | Cc1noc(C)c1C(=O)N(C)C(C)c1ccc(S(C)(=O)=O)cc1 (stereo not drawn) | -20.5%

Row | Compound | cytotoxicity at 70.5 h
24 | CNCc1cn(CC2CCN(CC(C)(C)CN3CCCC3)CC2)nn1 | -13.6%
25 | CS(=O)(=O)N1CC(c2nc[nH]n2)c2cc(C(=O)NC3CCCC3)ccc21 (stereo not drawn) | -20.4%
26 | COc1cc(C(=O)N(Cc2ccc(F)cc2)C2CC2)cc2c1OCCO2 | 17.8%
27 | O=C(COCC1CC1)N1CCCC(n2cccn2)C1 (stereo not drawn) | 2.78%
28 | CCOc1ccccc1C(CC(=O)Nc1ccc(C)cn1)NC(C)=O (stereo not drawn) | -9.08%
29 | CCc1nc(C2CCCN(C(=O)c3ccc4c(c3)nnn4C)C2)no1 (stereo not drawn) | -7.83%
30 | COCCCC1CCCN(Cc2c(C)ccc3ncccc23)C1 (stereo not drawn) | 6.57%
31 | COc1cc2nc(NCCNS(C)(=O)=O)cc(C)c2cc1OC | -0.473%
32 | N#Cc1ccc(OCC(O)CN2CCN(c3nccs3)CC2)cc1 (stereo not drawn) | 13.7%
33 | N#Cc1ccc(N2CCCN(c3nccs3)CC2)nc1 | 1.75%
34 | COCCOC1CCN(C(C(=O)O)c2ccc3c(c2)OCO3)CC1 (stereo not drawn) | -6.06%
35 | CCN1CCN(c2ccc(C(=O)NC(C)CCOC)cc2)CC1 (stereo not drawn) | 23.2%
36 | O=C(NCCC1CN(C2CCCC2)CCO1)c1cc(=O)[nH]c(=O)[nH]1 (stereo not drawn) | -11.6%
37 | Cc1oc(CNC(=O)Cc2ccccc2Cl)cc1C(=O)O | -7.56%
38 | O=C(c1ccsc1)N1CC[C@H]2C[C@@H](c3nnc(C4CC4)o3)O[C@@H]2C1 | -12.7%
39 | O=C(CCN1CCOCC1)Nc1cccc(CNCc2cccs2)c1 | -8.33%
40 | COCc1ccc(CNC(=O)CN2CCc3ccccc32)cc1 | 1.24%
41 | OC1(CN2CCCCC2)CCN(c2cc(C(F)(F)F)ccn2)C1 (stereo not drawn) | -22.3%
42 | Cc1cc(CN2CCC(C3CCN(CCc4ccccc4)C3)CC2)[nH]n1 (stereo not drawn) | -0.374%
43 | CC(C)c1noc(C[S+]([O-])CC(=O)Nc2cc(F)ccc2F)n1 (stereo not drawn) | -3.52%
44 | c1ccc(CN2CCc3c(CNc4nccs4)n[nH]c3C2)nc1 | -16.9%
45 | CN(C)C1CCCN(C(=O)NCCNC(=O)C2CCCC2)C1 (stereo not drawn) | -1.02%
46 | O=C(c1cccnc1)N1Cc2ccccc2OCC1Cn1ccnc1 (stereo not drawn) | 9.81%

Row | Compound | cytotoxicity at 70.5 h
47 | NC(=O)c1cccc(CC2CCN(C(=O)CCCN3CCOCC3)C2)c1 (stereo not drawn) | -4.93%
48 | Cc1ccc(NC(=O)CN[C@H](C(N)=O)C(C)C)cc1F | 13.9%
49 | O=C(NC1CC1)[C@@H]1C[C@@H]2CCN(Cc3ccccc3)C[C@@H]2O1 | 25.4%
50 | CCc1cc(=O)n(CC(=O)N2CCCCC2)c(-c2cccc(F)c2)n1 | -9.52%
51 | CC[C@@H]1N(Cc2nccs2)CCC[C@]12CCC(=O)N2C | 9.06%
52 | OCCNc1cc(-c2ccncc2)ncn1 | 0.654%
53 | COc1ccc(CNc2cc(-c3nc(C)no3)ccn2)c(OC)c1 | -1.3%
54 | CNC(=O)CNCc1c[nH]nc1-c1cc2ccccc2o1 | -1.2%
55 | COc1c(C2CCCN2c2ncnc3c2CCC3)c(C)nn1C (stereo not drawn) | -2.31%
56 | COc1ccc(C(=O)N2CCC(Oc3ccccc3C)(C(=O)O)CC2)o1 | -3.87%
57 | CCn1ccc(CN(C)C(=O)CSc2nnc(N)s2)n1 | -2.09%
58 | CC(C)c1nc(C2CCCN2C(=O)c2cnc[nH]2)no1 (stereo not drawn) | 21.4%
59 | Cc1ccccc1S(=O)(=O)NC(=O)CSc1ccc2c(c1)OCCO2 | -4.74%
60 | CC(C)OCc1cccc(CNc2cnn(C)c(=O)c2Cl)c1 | 3.32%
61 | O=c1[nH]c2c(c(=O)n1C1CCCCC1)CCC2NCc1ccccc1 (stereo not drawn) | -30.1%
62 | O=C1CSC(C(F)(F)F)c2c(O)nn(C3CCCCC3)c2N1 (stereo not drawn) | 15.2%
63 | COc1ccc(CC(=O)N2CCC(c3n[nH]c(C4CC4)n3)CC2)cc1 | 2.82%
64 | CN(C(=O)c1ccnn1C)[C@@H]1CCC[C@@H](Oc2ccccc2)[C@@H]1O | -3.62%
65 | Cc1ccc(CSc2nc(N)cc(NCCC(=O)N3CCCC3)n2)cc1 | -4.18%
66 | CN1C(=O)CO[C@H](c2ccc(NC(=O)Nc3ccccc3)cc2)[C@H]1CO | -7.02%
67 | CN(C)[C@@H]1CCN(C(=O)Cc2ccc(F)cc2)[C@H]1Cc1ccncc1 | -15.9%
68 | CC(=O)Nc1nc(CS(=O)(=O)CCCc2ccccc2)cs1 | -9.04%
69 | CC(NC(=O)NCCCN(C)S(C)(=O)=O)c1cccnc1 (stereo not drawn) | -7.17%

Row | Compound | cytotoxicity at 70.5 h
70 | CCCC1CCCN(C(=O)Nc2ccc(F)c(C(N)=O)c2)CC1 (stereo not drawn) | -1.9%
71 | Cn1ccnc1CN1CC[C@@H](NS(C)(=O)=O)[C@@H]1Cc1ccccc1 | -10.6%
72 | COCCNC(=O)[C@@H]1CC[C@@H]2[C@@H](CCN2c2ncc(F)cn2)O1 | -3.55%
73 | Cc1nc2c(c(NCc3cnc4c(c3)CCC4)n1)CNC2 | -6.06%
74 | COc1c(CNCc2cccc(CN(C)C)c2)c(C)nn1C | -12.7%
75 | Cn1ccnc1CNCCNc1ncc(Cl)cc1Cl | -5.95%
76 | O=C(c1ccc(NC2CC2)nc1)N1CCCC(n2cccn2)C1 (stereo not drawn) | -4.81%
77 | CC(C)Oc1ccc(C(=O)N2CC[C@H](O)[C@@H](n3ccnc3)CC2)cc1 | 18.5%
78 | CC(C)(C)CC(=O)N1C[C@@H]2C[C@H]1CN2 | -8.19%
79 | CN(C)S(=O)(=O)N1C[C@@H]2CC[C@H](C1)N(Cc1ccc3[nH]ccc3c1)C2 | -5.61%
80 | CCC(CC)(CNC(=O)c1cccn1Cc1cccnc1)N(C)C | -3.43%
81 | CCc1nc(C2CCCN(C(=O)c3cccc(Cl)c3)C2)no1 (stereo not drawn) | -1.41%
82 | C1CCC(c2nc3c(c(N4CCN5CCCC5C4)n2)CCNCC3)C1 (stereo not drawn) | -5.97%
83 | CN(Cc1cccs1)Cc1nnsc1Cl | -4.68%
84 | CCCc1cc(NC(=O)c2cccc(N3CCCNC3=O)c2)n[nH]1 | -6.61%
85 | CC(=O)N1CCN(C)CC(COCc2ccccc2)C1 (stereo not drawn) | -3.41%
86 | Cc1cc2c(=O)n(CC(=O)N3CCn4cccc4C3C(C)C)cnc2s1 (stereo not drawn) | -6.1%
87 | Cc1c(C(=O)O)sc2nc(C(F)(F)F)ccc12 | -18.5%
88 | O=C(c1ccoc1)N1CCc2c(COCC3CC3)cncc2C1 | 14.9%
89 | CCNC(=O)CCN1CCCC1c1cccc2c1OCCO2 (stereo not drawn) | -7.15%
90 | CCc1c(C(=O)N2CCNC(=O)C2)cnn1C(C)(C)C | -6.91%
91 | Cc1ccnc(NC(=O)C2CCN(CCCn3ccnc3)CC2)c1 | -15.3%
92 | COC(=O)CN(Cc1ccccc1C)C(=O)CCCNC(=O)C1CC1 | 10.1%

Row | Compound | cytotoxicity at 70.5 h
93 | N#Cc1cccc(S(=O)(=O)N2CCCCC2CCN2CCCC2)c1 (stereo not drawn) | -3.74%
94 | COCCCN1C(=O)CC[C@H]2CN(c3cc(C(N)=O)ccn3)CC[C@H]21 | -7.97%
95 | CCC(CO)N(Cc1cccnc1)C(=O)c1ccc(C)[nH]c1=O (stereo not drawn) | -7.73%
96 | CC(C)n1cnnc1CN(C)C(=O)CCn1cnc2ccccc2c1=O | -17.5%
97 | COc1ccccc1OCC(=O)NS(=O)(=O)c1ccccc1Br | 0.476%
98 | CCOc1ncccc1CNC(=O)Nc1cc(C)nn1C | -4.27%
99 | CC(C)c1noc(CCC(=O)NCC2CCOC2)n1 (stereo not drawn) | -2.41%
100 | O=C(OCC1CCCN1)c1cccc(NC(=O)c2ccco2)c1 (stereo not drawn) | -14.8%
101 | COc1cccc(CN2CCc3nc(C(=O)NCC(C)C)sc3CC2)c1 | 10.6%
102 | CC(CNC(=O)N1CCC(CO)CC1)Cc1cccs1 (stereo not drawn) | -3.99%
103 | COCCNC(=O)[C@@]12CCO[C@@H]1CCN(Cc1cc(C)on1)C2 | 7.02%
104 | COC(=O)CCNC(=O)c1nc(NS(=O)(=O)c2ccccc2)sc1C | -23%
105 | COc1ccccc1OC1(C(=O)O)CCN(c2nccnc2C)CC1 | -5.26%
106 | Cc1ccc2cc(C3(O)CCN(C)CC3)ccc2n1 | -0.603%
107 | CC(C)CNC(=O)[C@H]1CCS(=O)(=O)[C@@H]2CN(Cc3ccc(Cl)cc3)C[C@H]12 | 3.8%
108 | CCc1ccc(NC(=O)CC2Cn3ncnc3NC2=O)cc1 (stereo not drawn) | -16.3%
109 | Cc1cccc(NC(=O)Cn2ncc(SCC(N)=O)c(Cl)c2=O)c1C | -13.7%
110 | CCOc1ccccc1OCCN(C)Cc1ncnn1CC | -6.09%
111 | Cc1cccc(-n2ncc(C(=O)NCC3CCS(=O)(=O)C3)c2C)c1 (stereo not drawn) | 0.102%
112 | Cc1noc(C)c1CC(=O)N1CCCN(C)c2ccc(Cl)cc21 | -11.4%
113 | C[C@@H]1CN(C(=O)CSc2nncn2C)C[C@@]1(O)C1CC1 | -4.21%
